Test results as given in patent US6472348B1, “Pyridone derivatives and herbicides” (Kumiai Chemical Industry Co., Ltd., priority 1996, dated 2002).

Legend:
[1] = system: common lambsquarters (Ch); assay: Test Example 2: herbicidal effects by upland field soil treatment; type: in vivo; details: 100 g of the active ingredient per 10 ares;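 further: grade of growth control; 5 = at least 90%; 4 = 70 to 90%; 3 = 50 to 70%; 2 = 30 to 50%; 1 = 10 to 30%; 0 = under 10%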
Excerpt: (§1) (Test on Herbicidal Effects by Upland Field Soil Treatment)

[2] = system: slender amaranth (Am); assay: as above; type: in vivo; details: 100 g of the active ingredient per 10 ares
Excerpt: as §1

[3] = system: Digitaria ciliaris (Di); assay: as above; type: in vivo; details: 100 g of the active ingredient per 10 ares;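 further: grade of growth control; 5 = at least 90%; 4 = 70 to 90%; 3 = 50 to 70%; 2 = 30 to 50%; 1 = 10 to 30%; 0 = under 10%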
Excerpt: as §1

[4] = system: pale smartweed (Po); assay: as above; type: in vivo; details: 100 g of the active ingredient per 10 ares
Excerpt: as §1

[5] = system: rice flatsedge (Ci); assay: as above; type: in vivo; details: 100 g of the active ingredient per 10 ares
Excerpt: as §1

[6] = system: barnyardgrass (Ec); assay: as above; type: in vivo; details: 100 g of the active ingredient per 10 ares
Excerpt: as §1

[7] = system: common lambsquarters (Ch); assay: Test Example 9: crop plant selectivity by upland field foliage treatment (wheat), herbicidal effects; type: in vivo; design: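 grade of growth control; 5 = at least 90%; 4 = 70 to 90%; 3 = 50 to 70%; 2 = 30 to 50%; 1 = 10 to 30%; 0 = under 10%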; details: dose 1.6 g ai/10a, 14th day after treatment
Experimental: (§2) (Test on Crop Plant Selectivity by Upland Field Foliage Treatment)
(§3) In a plastic pot (surface area: 600 cm^2) filled with sand, wheat (Tr), pale smartweed (Po), slender amaranth (Am), common lambsquarters (Ch) and China jute (Ab) were sown and cultured in a green house for 2 weeks. […] The plants were then cultured in a green house, and the evaluation of the herbicidal effects and phytotoxicity was conducted on the 14th day after the treatment in accordance with the standards as identified in Table 47.

[8] = system: slender amaranth (Am); assay: as above; type: in vivo; design: scale not given here; details: dose 1.6 g ai/10a, 14th day after treatment
Experimental: as §2, §3

[9] = system: China jute (Ab); assay: as above; type: in vivo; design: scale not given here; details: dose 1.6 g ai/10a, 14th day after treatment
Experimental: as §2, §3

[10] = system: pale smartweed (Po); assay: as above; type: in vivo; design: scale not given here; details: dose 1.6 g ai/10a, 14th day after treatment
Experimental: as §2, §3

[11] = system: wheat (Tr); assay: Test Example 9: crop plant selectivity by upland field foliage treatment (wheat), phytotoxicity; details: dose 1.6 g ai/10a, 14th day after treatment;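 further: grade of crop injury; 5 = at least 90%; 4 = 70 to 90%; 3 = 50 to 70%; 2 = 30 to 50%; 1 = 10 to 30%; 0 = under 10%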
Experimental: as §2, §3

[12] = system: common lambsquarters (Ch); assay: Test Example 3: herbicidal effects by upland field foliage treatment; type: in vivo; design: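 grade of growth control; 5 = at least 90%; 4 = 70 to 90%; 3 = 50 to 70%; 2 = 30 to 50%; 1 = 10 to 30%; 0 = under 10%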
Outline: (§4)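 Greenhouse test, upland conditions: seeds sown in sand pots of 120 cm^2 area and overlaid with soil; 2 weeks growth; leaves treated; herbicidal injury graded on day 14 after treatment by fixed standards.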

[13] = system: slender amaranth (Am); assay: as above; type: in vivo; design: scale not given here
Outline: as §4

[14] = system: pale smartweed (Po); assay: as above; type: in vivo; design: scale not given here
Outline: as §4

[15] = system: rice flatsedge (Ci); assay: as above; type: in vivo; design: scale not given here
Outline: as §4

[16] = system: Diaitaria ciliaris (Di); assay: as above; type: in vivo; design: scale not given here
Outline: as §4

[17] = system: barnyardgrass (Ec); assay: as above; type: in vivo; design: scale not given here
Outline: as §4

[18] = system: bulrush (Sc); assay: Test Example 1: herbicidal effects by paddy field soil treatment; type: in vivo; details: 100 g of the active ingredient per 10 ares, 21st day after the application, index 0-5 of Table 47;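 further: grade of growth control; 5 = at least 90%; 4 = 70 to 90%; 3 = 50 to 70%; 2 = 30 to 50%; 1 = 10 to 30%; 0 = under 10%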
Outline: (§5)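 Herbicidal effect was scored against a graded standard 21 days after treatment. Seeds were sown in puddled, leveled paddy soil flooded to 3 cm depth, and the active ingredient was applied at 100 g per 10 ares before greenhouse culture.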

[19] = system: monochoria (Mo); assay: as above; type: in vivo; details: 100 g of the active ingredient per 10 ares, 21st day after the application, index 0-5 of Table 47
Outline: as §5

[20] = system: barnyardgrass (Ec); assay: as above; type: in vivo; details: 100 g of the active ingredient per 10 ares, 21st day after the application, index 0-5 of Table 47
Outline: as §5

[21] = system: wheat (Tr); assay: Test Example 5: crop plant selectivity by upland field soil treatment (wheat), phytotoxicity; type: in vivo; design: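 grade of crop injury; 5 = at least 90%; 4 = 70 to 90%; 3 = 50 to 70%; 2 = 30 to 50%; 1 = 10 to 30%; 0 = under 10%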; details: dose 6.3 g ai/10a, 21st day after application
Experimental: (§6) (Test on Crop Plant Selectivity by Upland Field Soil Treatment)
(§7) In a plastic pot (surface area: 600 cm^2) filled with sand, wheat (Tr), Diaitaria ciliaris (Di), green foxtail (Se), pale smartweed (Po), slender amaranth (Am), common lambsquarters (Ch) and China jute (Ab) were sown and covered with soil. […] The plants were then cultured in a green house, and the evaluation of the herbicidal effects and phytotoxicity was conducted on the 21st day after the application in accordance with the standards as identified in Table 47. Symbol—represents “not tested”.

[22] = system: green foxtail (Se); assay: Test Example 5: crop plant selectivity by upland field soil treatment (wheat), herbicidal effects; type: in vivo; design: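 grade of growth control; 5 = at least 90%; 4 = 70 to 90%; 3 = 50 to 70%; 2 = 30 to 50%; 1 = 10 to 30%; 0 = under 10%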; details: dose 6.3 g ai/10a, 21st day after application
Experimental: as §6, §7

[23] = system: common lambsquarters (Ch); assay: as above; type: in vivo; design: scale not given here; details: dose 6.3 g ai/10a, 21st day after application
Experimental: as §6, §7

[24] = system: slender amaranth (Am); assay: as above; type: in vivo; design: scale not given here; details: dose 6.3 g ai/10a, 21st day after application
Experimental: as §6, §7

[25] = system: China jute (Ab); assay: as above; type: in vivo; design: scale not given here; details: dose 6.3 g ai/10a, 21st day after application
Experimental: as §6, §7

[26] = system: pale smartweed (Po); assay: as above; type: in vivo; design: scale not given here; details: dose 6.3 g ai/10a, 21st day after application
Experimental: as §6, §7

[27] = 21st day after the application, index 0-5 of Table 47
[28] = 100 g of the active ingredient per 10 ares, evaluated on the 14th day after treatment
[29] = evaluated on the 21st day after application
[30] = 100 g active ingredient per 10 ares, evaluated 14th day after treatment

Row | Compound | Herbicidal effects Ch [7] | Herbicidal effects Am [8] | Herbicidal effects Ab [9] | Herbicidal effects Po [10] | Phytotoxicity Tr [11] | Herbicidal effects Sc [18] | Herbicidal effects Mo [19] | Herbicidal effects Ec [20] | Herbicidal effects Ch [1, 29] | Herbicidal effects Am [2, 29] | Herbicidal effects Di [3, 29] | Herbicidal effects Po [4, 29] | Herbicidal effects Ci [5, 29] | Herbicidal effects Ec [6, 29] | Herbicidal effects Ch [12, 30] | Herbicidal effects Am [13, 30] | Herbicidal effects Po [14, 30] | Herbicidal effects Ci [15, 30] | Herbicidal effects Di [16, 30] | Herbicidal effects Ec [17, 30] | further results
1 | CCCCCOC(=O)COc1cc(-c2ccc(C(F)(F)F)n(C)c2=O)c(F)cc1Cl [1-20] | 5 | 5 | 5 | 5 | 2 | 5 | 5 | 5 |  |  |  |  |  |  |  |  |  |  |  |  | Herbicidal effects Ch [1, 27]: 5; Herbicidal effects Am [2, 27]: 5; Herbicidal effects Di [3, 27]: 5; Herbicidal effects Po [4, 27]: 5; Herbicidal effects Ci [5, 27]: 5; Herbicidal effects Ec [6, 27]: 5; Herbicidal effects Ch [12, 28]: 5; Herbicidal effects Am [13, 28]: 5; Herbicidal effects Po [14, 28]: 5; Herbicidal effects Ci [15, 28]: 5; Herbicidal effects Di [16, 28]: 5; Herbicidal effects Ec [17, 28]: 5
2 | CCCC(Sc1cc(-c2ccc(C(F)(F)F)n(C)c2=O)c(F)cc1Cl)C(=O)OCC (stereo not shown) [1-48] | 5 | 5 | 5 | 5 | 2 | 5 | 5 | 5 |  |  |  |  |  |  |  |  |  |  |  |  | Herbicidal effects Ch [12, 28]: 5; Herbicidal effects Am [13, 28]: 5; Herbicidal effects Po [14, 28]: 5; Herbicidal effects Ci [15, 28]: 5; Herbicidal effects Di [16, 28]: 5; Herbicidal effects Ec [17, 28]: 5
3 | CCCOC(=O)c1cc(-c2ccc(C(F)(F)F)n(C)c2=O)c(F)cc1Cl [1-158] | 5 | 5 | 5 | 5 | 2 | 5 | 5 | 5 |  |  |  |  |  |  |  |  |  |  |  |  | Herbicidal effects Ch [1, 27]: 5; Herbicidal effects Am [2, 27]: 5; Herbicidal effects Di [3, 27]: 5; Herbicidal effects Po [4, 27]: 5; Herbicidal effects Ci [5, 27]: 5; Herbicidal effects Ec [6, 27]: 5; Herbicidal effects Ch [12, 28]: 5; Herbicidal effects Am [13, 28]: 5; Herbicidal effects Po [14, 28]: 5; Herbicidal effects Ci [15, 28]: 5; Herbicidal effects Di [16, 28]: 5; Herbicidal effects Ec [17, 28]: 5
4 | C#CCN1C(=O)COc2cc(F)c(-c3cc(C)c(C(F)(F)F)n(C)c3=O)cc21 [Compound 2-2] |  |  |  |  |  | 5 | 5 | 5 | 5 | 5 | 5 | 5 | 5 | 5 | 5 | 5 | 5 | 5 | 5 | 5 | Phytotoxicity Tr [21]: 2; Herbicidal effects Se [22]: 5; Herbicidal effects Ch [23]: 5; Herbicidal effects Am [24]: 5; Herbicidal effects Ab [25]: 5; Herbicidal effects Po [26]: 5
5 | CCn1c(=O)sc2cc(F)c(-c3ccc(C(F)(F)F)n(C)c3=O)cc21 [Compound 3-7] | 5 | 5 | 5 | 5 | 2 | 5 | 5 | 5 | 5 | 5 | 5 | 5 | 5 | 5 | 5 | 5 | 5 | 5 | 5 | 5 | 
6 | CC(Br)c1cc2c(-c3ccc(C(F)(F)F)n(C)c3=O)c(F)cc(Cl)c2o1 (stereo not shown) [Compound 4-34] | 5 | 5 | 5 | 5 | 2 | 5 | 5 | 5 | 5 | 5 | 5 | 5 | 5 | 5 | 5 | 5 | 5 | 5 | 5 | 5 | 
7 | COC(C)c1cc2c(-c3ccc(C(F)(F)F)n(C)c3=O)c(F)cc(Cl)c2o1 (stereo not shown) [Compound 4-35] | 5 | 5 | 5 | 5 | 2 |  |  |  | 5 | 5 | 5 | 5 | 5 | 5 | 5 | 5 | 5 | 5 | 5 | 5 | 
8 | CCOC(C)c1cc2c(-c3ccc(C(F)(F)F)n(C)c3=O)c(F)cc(Cl)c2o1 (stereo not shown) [Compound 4-36] | 5 | 5 | 5 | 5 | 2 |  |  |  | 5 | 5 | 5 | 5 | 5 | 5 | 5 | 5 | 5 | 5 | 5 | 5 | 
9 | CCC(OC)c1cc2c(-c3ccc(C(F)(F)F)n(C)c3=O)c(F)cc(Cl)c2o1 (stereo not shown) [Compound 4-39] | 5 | 5 | 5 | 5 | 2 |  |  |  |  |  |  |  |  |  |  |  |  |  |  |  | 
